Values after ≈ are worked out from the molar mass of the structure shown. Like-named read-outs stand apart in the source and are kept apart here. Square brackets hold non-standard residues; d marks the D form. Peptide text beside a SMILES is read from it. * marks the point of attachment. Benzoyl(4-CF3) = O=C(c1ccc(C(F)(F)F)cc1)*; NH((S)CH(Me)CH2NMe2) = C[C@@H](CN(C)C)N*; NH(1-CH2NMe2-cBu) = CN(C)CC1(N*)CCC1; dGly(nOct) = CCCCCCCC[C@@H](N)C(=O)O; Gly(octyl) = CCCCCCCC[C@H](N)C(=O)O; Oxazole4CO(2-Me) = Cc1nc(C(=O)*)co1; Thiophene2carbonyl = O=C(c1cccs1)*; d(hCha) = N[C@H](CCC1CCCCC1)C(=O)O; hCha = N[C@@H](CCC1CCCCC1)C(=O)O; X9 = O=C(c1ccc2ocnc2c1)*; Aib = CC(C)(N)C(=O)O; X1 = COCCN(CCN*)CCOC; Bz = O=C(c1ccccc1)*; βAla = NCCC(=O)O; tBu = CC(C)(C)*
Columns and labels:
[1] = system: intracellular Leishmania donovani MHOM-ET-67/L82 amastigotes; test: In vitro antiprotozoal assay, intracellular amastigotes; format: cell-based; settings: intracellular amastigotes; read-out: L.don.InMac IC50
Experimental: (§1) The testing of the inventive compounds against Leishmania donovani (strain MHOM/ET/67/L82) was performed in 96 well plates at concentrations in serial dilutions. Tests were done in triplicate.

[2] = system: Staphylococcus aureus ATCC BAA-1556, USA300 MRSA; test: microbe, parasite or virus in culture; format: cell-based; settings: ATCC BAA-1556
Experimental: Pre-formulated compound solution was diluted in 100% DMSO to prepare a 1.6 mg/mL working stock solution. […] The concentration range was 0.032 to 32 μg/mL.

[3] = system: axenic Leishmania donovani MHOM-ET-67/L82 amastigotes; test: In vitro antiprotozoal assay, axenic amastigotes; format: cell-based; settings: axenic amastigotes; read-out: L.don.ax. IC50
Experimental: as §1

[4] = Cytotoxicity assay (Alamar Blue) on L6-cells; format: cell-based, rat
Experimental: Tests were done in triplicate.
The plates were incubated for additional 2 h.

[5] = rat myoblast L6 cells, read-out: Cytotox L6 IC50

MIC [2] [µg/mL]	Compound	IC50 [1] [nM]	IC50 [3] [nM]	IC50 at 68 h ([4]; rat) [nM]	IC50 at 68 h [4, 5] [nM]
16 (≈ 13.7 µM)	CCCCCCCC[C@@H](NC(=O)[C@@H]1CCCN1C(=O)c1coc(C)n1)C(=O)N[C@@H](CC(C)C)C(=O)NC(C)(C)C(=O)N[C@@H](CC(C)C)C(=O)N[C@@H](CC(C)C)C(=O)NC(C)(C)C(=O)NC(C)(C)C(=O)NCCC(=O)NC1(CN(C)C)CCC1 [Compound 6789, (2R)-N-[(1S)-1-[(1-{[(1S)-1-{[(1S)-1-({1-[(1-{[2-({1-[(dimethylamino)methyl]cyclobutyl}carbamoyl)ethyl]carbamoyl}-1-methylethyl)carbamoyl]-1-methylethyl}carbamoyl)-3-methylbutyl]carbamoyl}-3-methylbutyl]carbamoyl}-1-methylethyl)carbamoyl]-3-methylbutyl]-2-{[(2S)-1-(2-methyl-1,3-oxazole-4-carbonyl)pyrrolidin-2-yl]formamido}decanamide] ({Oxazole4CO(2-Me)}-P[dGly(nOct)]L[Aib]LL[Aib][Aib][βAla]-{NH(1-CH2NMe2-cBu)})	65	3.4	4280	
	CCCCCCCC[C@H](NC(=O)[C@@H]1CCCN1C(=O)c1ccc2ocnc2c1)C(=O)N[C@@H](CC(C)C)C(=O)NC(C)(C)C(=O)N[C@@H](CC(C)C)C(=O)N[C@@H](CC(C)C)C(=O)NC(C)(C)C(=O)NC(C)(C)C(=O)NCCC(=O)N[C@@H](C)CN(C)C [Compound 5937, (2S)-2-{[(2S)-1-(1,3-benzoxazole-5-carbonyl)pyrrolidin-2-yl]formamido}-N-[(1S)-1-[(1-{[(1S)-1-{[(1S)-1-{[1-({1-[(2-{[(2S)-1-(dimethylamino)propan-2-yl]carbamoyl}ethyl)carbamoyl]-1-methylethyl}carbamoyl)-1-methylethyl]carbamoyl}-3-methylbutyl]carbamoyl}-3-methylbutyl]carbamoyl}-1-methylethyl)carbamoyl]-3-methylbutyl]decanamide] (X9-P[Gly(octyl)]L[Aib]LL[Aib][Aib][βAla]-{NH((S)CH(Me)CH2NMe2)})	58.5	21.2	1160	
	CCCCCCCC[C@H](NC(=O)[C@@H]1CCCN1C(=O)c1ccc(C(F)(F)F)cc1)C(=O)N[C@@H](CC(C)C)C(=O)NC(C)(C)C(=O)N[C@@H](CC(C)C)C(=O)N[C@@H](CC(C)C)C(=O)NC(C)(C)C(=O)NC(C)(C)C(=O)NCCC(=O)N[C@@H](C)CN(C)C [Compound 5936, (2S)-N-[(1S)-1-[(1-{[(1S)-1-{[(1S)-1-{[1-({1-[(2-{[(2S)-1-(dimethylamino)propan-2-yl]carbamoyl}ethyl)carbamoyl]-1-methylethyl}carbamoyl)-1-methylethyl]carbamoyl}-3-methylbutyl]carbamoyl}-3-methylbutyl]carbamoyl}-1-methylethyl)carbamoyl]-3-methylbutyl]-2-{[(2S)-1-[4-(trifluoromethyl)benzoyl]pyrrolidin-2-yl]formamido}decanamide] ({Benzoyl(4-CF3)}-P[Gly(octyl)]L[Aib]LL[Aib][Aib][βAla]-{NH((S)CH(Me)CH2NMe2)})	< 33.2	3.3	411	
	Cc1nc(C(=O)N2CCC[C@H]2C(=O)N[C@@H](COC(C)(C)C)C(=O)N[C@@H](CC(C)C)C(=O)NC(C)(C)C(=O)N[C@@H](CC(C)C)C(=O)N[C@@H](CC(C)C)C(=O)NC(C)(C)C(=O)NC(C)(C)C(=O)NCCC(=O)NC2(CN(C)C)CCC2)co1 [Compound 6780, (2S)-2-[(2S)-2-{2-[(2S)-2-[(2S)-3-(tert-butoxy)-2-{[(2S)-1-(2-methyl-1,3-oxazole-4-carbonyl)pyrrolidin-2-yl]formamido}propanamido]-4-methylpentanamido]-2-methylpropanamido}-4-methylpentanamido]-N-{1-[(1-{[2-({1-[(dimethylamino)methyl]cyclobutyl}carbamoyl)ethyl]carbamoyl}-1-methylethyl)carbamoyl]-1-methylethyl}-4-methylpentanamide] ({Oxazole4CO(2-Me)}-PS(tBu)L[Aib]LL[Aib][Aib][βAla]-{NH(1-CH2NMe2-cBu)})	997	166	8750	
32 (≈ 26.3 µM)	COCCN(CCNC(=O)CCNC(=O)C(C)(C)NC(=O)C(C)(C)NC(=O)[C@H](CC(C)C)NC(=O)[C@H](CC(C)C)NC(=O)C(C)(C)NC(=O)[C@H](CC(C)C)NC(=O)[C@H](CCC1CCCCC1)NC(=O)[C@@H]1CCCN1C(=O)c1coc(C)n1)CCOC [Compound 6791, (2S)-N-(1-{[(1S)-1-{[(1S)-1-({1-[(1-{[2-({2-[bis(2-methoxyethyl)amino]ethyl}carbamoyl)ethyl]carbamoyl}-1-methylethyl)carbamoyl]-1-methylethyl}carbamoyl)-3-methylbutyl]carbamoyl}-3-methylbutyl]carbamoyl}-1-methylethyl)-2-[(2S)-4-cyclohexyl-2-{[(2S)-1-(2-methyl-1,3-oxazole-4-carbonyl)pyrrolidin-2-yl]formamido}butanamido]-4-methylpentanamide] ({Oxazole4CO(2-Me)}-P[hCha]L[Aib]LL[Aib][Aib][βAla]-X1)	179	2.1	8230	
	CCCCCCCC[C@H](NC(=O)[C@@H]1CCCN1C(=O)c1ccccc1)C(=O)N[C@@H](CC(C)C)C(=O)NC(C)(C)C(=O)N[C@@H](CC(C)C)C(=O)N[C@@H](CC(C)C)C(=O)NC(C)(C)C(=O)NC(C)(C)C(=O)NCCC(=O)N[C@@H](C)CN(C)C [Compound 5649, (2S)-2-{[(2S)-1-benzoylpyrrolidin-2-yl]formamido}-N-[(1S)-1-[(1-{[(1S)-1-{[(1S)-1-{[1-({1-[(2-{[(2S)-1-(dimethylamino)propan-2-yl]carbamoyl}ethyl)carbamoyl]-1-methylethyl}carbamoyl)-1-methylethyl]carbamoyl}-3-methylbutyl]carbamoyl}-3-methylbutyl]carbamoyl}-1-methylethyl)carbamoyl]-3-methylbutyl]decanamide] (Bz-P[Gly(octyl)]L[Aib]LL[Aib][Aib][βAla]-{NH((S)CH(Me)CH2NMe2)})	27.2	3.5		274
	CCCCCCCC[C@H](NC(=O)[C@@H]1CCCN1C(=O)c1cccs1)C(=O)N[C@@H](CC(C)C)C(=O)NC(C)(C)C(=O)N[C@@H](CC(C)C)C(=O)N[C@@H](CC(C)C)C(=O)NC(C)(C)C(=O)NC(C)(C)C(=O)NCCC(=O)N[C@@H](C)CN(C)C [Compound 5904, (2S)-N-[(1S)-1-[(1-{[(1S)-1-{[(1S)-1-{[1-({1-[(2-{[(2S)-1-(dimethylamino)propan-2-yl]carbamoyl}ethyl)carbamoyl]-1-methylethyl}carbamoyl)-1-methylethyl]carbamoyl}-3-methylbutyl]carbamoyl}-3-methylbutyl]carbamoyl}-1-methylethyl)carbamoyl]-3-methylbutyl]-2-{[(2S)-1-(thiophene-2-carbonyl)pyrrolidin-2-yl]formamido}decanamide] (Thiophene2carbonyl-P[Gly(octyl)]L[Aib]LL[Aib][Aib][βAla]-{NH((S)CH(Me)CH2NMe2)})	11.4	3.1		216
	CCCCCCCC[C@H](NC(=O)[C@@H]1CCCN1C(=O)c1coc(C)n1)C(=O)N[C@@H](CC(C)C)C(=O)NC(C)(C)C(=O)N[C@@H](CC(C)C)C(=O)N[C@@H](CC(C)C)C(=O)NC(C)(C)C(=O)NC(C)(C)C(=O)NCCC(=O)N[C@@H](C)CN(C)C [Compound 5905, (2S)-N-[(1S)-1-[(1-{[(1S)-1-{[(1S)-1-{[1-({1-[(2-{[(2S)-1-(dimethylamino)propan-2-yl]carbamoyl}ethyl)carbamoyl]-1-methylethyl}carbamoyl)-1-methylethyl]carbamoyl}-3-methylbutyl]carbamoyl}-3-methylbutyl]carbamoyl}-1-methylethyl)carbamoyl]-3-methylbutyl]-2-{[(2S)-1-(2-methyl-1,3-oxazole-4-carbonyl)pyrrolidin-2-yl]formamido}decanamide] ({Oxazole4CO(2-Me)}-P[Gly(octyl)]L[Aib]LL[Aib][Aib][βAla]-{NH((S)CH(Me)CH2NMe2)})	13.1	7.9	852	
	Cc1nc(C(=O)N2CCC[C@@H]2C(=O)N[C@H](CCC2CCCCC2)C(=O)N[C@H](CC(C)C)C(=O)NC(C)(C)C(=O)N[C@H](CC(C)C)C(=O)N[C@H](CC(C)C)C(=O)NC(C)(C)C(=O)NC(C)(C)C(=O)NCCC(=O)NC2(CN(C)C)CCC2)co1 [Compound 7050, (2R)-2-[(2R)-4-cyclohexyl-2-{[(2R)-1-(2-methyl-1,3-oxazole-4-carbonyl)pyrrolidin-2-yl]formamido}butanamido]-N-(1-{[(1R)-1-{[(1R)-1-({1-[(1-{[2-({1-[(dimethylamino)methyl]cyclobutyl}carbamoyl)ethyl]carbamoyl}-1-methylethyl)carbamoyl]-1-methylethyl}carbamoyl)-3-methylbutyl]carbamoyl}-3-methylbutyl]carbamoyl}-1-methylethyl)-4-methylpentanamide] ({Oxazole4CO(2-Me)}-[dP][d(hCha)][dL][Aib][dL][dL][Aib][Aib][βAla]-{NH(1-CH2NMe2-cBu)})	43.7	5.1	4970	

Source: patent publication US20240174714A1, “TREATMENT OF SKIN DISORDERS” (priority 2021, published 2024)
